The results in this text go back to US9006464B2, “Substituted cyclopentanes having prostaglandin activity” (Allergan, Inc., priority 2007, dated 2015).

The target in test [1] is T1, EP4 (Homo sapiens, UniProt P35408). As to the kind of experiment: EP4 Ca2+ signal assay. The test is classed as cell-based. The text has this:
(§1) U.S. patent application Ser. No. 11/553,143, filed on Oct. 26, 2006, incorporated by reference herein, describes the methods used to obtain the in vitro data in Table 1 below.

The target in test [2] is T1, EP4. The experiment in a line: EP4 binding (Ki).
Excerpt: as §1

In test [3] the target is T2, EP2 (Homo sapiens, UniProt P43116). The experiment in a line: EP2 Ca2+ signal assay. In kind it is cell-based.
Excerpt: as §1

Test [4] has as its target T2, EP2. The experiment in a line: EP2 cAMP assay. In kind it is cell-based.
Excerpt: as §1
(cAMP levels reflect the balance of adenylyl cyclase and phosphodiesterase activity.)

Test [5] concerns the target T2, EP2. The experiment in a line: EP2 binding (Ki).
Excerpt: as §1

Another test addresses T3, EP3 (Homo sapiens, UniProt P43115).
T3 sequence (P43115 1-390): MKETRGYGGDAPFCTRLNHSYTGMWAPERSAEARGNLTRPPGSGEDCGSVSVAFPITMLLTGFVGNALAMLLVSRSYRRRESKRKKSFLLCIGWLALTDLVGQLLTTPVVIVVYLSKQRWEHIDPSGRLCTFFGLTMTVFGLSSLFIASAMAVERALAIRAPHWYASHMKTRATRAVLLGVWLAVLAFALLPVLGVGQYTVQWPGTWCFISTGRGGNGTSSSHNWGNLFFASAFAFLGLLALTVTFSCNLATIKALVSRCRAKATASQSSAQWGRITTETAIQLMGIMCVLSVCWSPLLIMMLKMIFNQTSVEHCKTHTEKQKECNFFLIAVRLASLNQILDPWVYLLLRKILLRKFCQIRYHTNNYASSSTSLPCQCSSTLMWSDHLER
The experiment in a line: Other receptors Ca2+ assay, EP3. In kind it is cell-based. To be noted: EP3 receptor.
Excerpt: as §1

The next test addresses T4, DP (Homo sapiens, UniProt Q13258).
T4 sequence (Q13258 1-359): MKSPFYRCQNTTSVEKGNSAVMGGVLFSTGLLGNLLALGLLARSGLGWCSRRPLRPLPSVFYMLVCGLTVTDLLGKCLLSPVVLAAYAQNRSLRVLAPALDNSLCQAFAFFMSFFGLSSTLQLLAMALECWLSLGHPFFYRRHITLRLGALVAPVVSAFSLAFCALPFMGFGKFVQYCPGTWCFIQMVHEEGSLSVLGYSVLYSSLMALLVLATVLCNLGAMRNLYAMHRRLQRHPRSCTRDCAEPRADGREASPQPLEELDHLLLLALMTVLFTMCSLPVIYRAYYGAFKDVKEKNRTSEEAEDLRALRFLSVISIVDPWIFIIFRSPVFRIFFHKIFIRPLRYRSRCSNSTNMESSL
As to the kind of experiment: Other receptors Ca2+ assay, DP. The test is classed as cell-based. To be noted: DP receptor.
Excerpt: as §1

The target of the next test is T5, EP1 (Homo sapiens, UniProt P34995).
T5 sequence (P34995 1-402): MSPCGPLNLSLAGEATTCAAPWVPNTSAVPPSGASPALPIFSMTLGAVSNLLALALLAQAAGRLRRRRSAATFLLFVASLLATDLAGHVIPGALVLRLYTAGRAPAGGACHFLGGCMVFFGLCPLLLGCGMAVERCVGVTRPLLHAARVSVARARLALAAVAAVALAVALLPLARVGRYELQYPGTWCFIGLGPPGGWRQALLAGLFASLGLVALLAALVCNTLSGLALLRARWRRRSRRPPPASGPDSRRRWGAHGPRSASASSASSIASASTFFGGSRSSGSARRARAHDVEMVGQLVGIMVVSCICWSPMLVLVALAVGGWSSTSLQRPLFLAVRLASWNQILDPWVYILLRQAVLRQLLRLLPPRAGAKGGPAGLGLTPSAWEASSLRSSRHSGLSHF
As to the kind of experiment: Other receptors Ca2+ assay, EP1. In kind it is cell-based. The following applies: EP1 receptor.
Excerpt: as §1

The next test has as its target T6, TP (Homo sapiens, UniProt P21731).
T6 sequence (P21731 1-343): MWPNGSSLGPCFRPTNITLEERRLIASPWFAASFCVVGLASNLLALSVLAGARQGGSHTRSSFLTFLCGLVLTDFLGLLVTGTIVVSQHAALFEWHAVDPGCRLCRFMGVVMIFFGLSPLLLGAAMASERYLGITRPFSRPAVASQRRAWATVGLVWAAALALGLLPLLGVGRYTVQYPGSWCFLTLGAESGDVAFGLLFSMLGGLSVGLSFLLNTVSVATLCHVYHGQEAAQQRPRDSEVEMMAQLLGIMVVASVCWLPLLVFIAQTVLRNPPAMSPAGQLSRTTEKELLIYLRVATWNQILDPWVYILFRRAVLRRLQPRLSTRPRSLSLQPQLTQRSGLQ
The experiment in a line: Other receptors Ca2+ assay, TP. The test is classed as cell-based. The following applies: TP receptor.
Excerpt: as §1

T1 sequence (P35408 whole entry): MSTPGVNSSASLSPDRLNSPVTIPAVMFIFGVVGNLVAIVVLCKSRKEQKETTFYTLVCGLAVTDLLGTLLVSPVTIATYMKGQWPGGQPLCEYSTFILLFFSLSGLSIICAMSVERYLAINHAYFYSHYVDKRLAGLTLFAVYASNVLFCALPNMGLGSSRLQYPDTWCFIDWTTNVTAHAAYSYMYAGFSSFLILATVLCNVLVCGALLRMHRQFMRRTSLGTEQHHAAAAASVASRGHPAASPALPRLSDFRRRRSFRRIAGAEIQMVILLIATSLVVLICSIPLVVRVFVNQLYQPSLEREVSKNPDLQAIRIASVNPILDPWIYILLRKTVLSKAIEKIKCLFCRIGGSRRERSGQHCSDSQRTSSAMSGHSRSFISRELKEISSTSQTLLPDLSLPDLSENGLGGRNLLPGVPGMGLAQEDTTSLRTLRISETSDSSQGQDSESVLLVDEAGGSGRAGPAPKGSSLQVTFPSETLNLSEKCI
T2 sequence (P43116 whole entry): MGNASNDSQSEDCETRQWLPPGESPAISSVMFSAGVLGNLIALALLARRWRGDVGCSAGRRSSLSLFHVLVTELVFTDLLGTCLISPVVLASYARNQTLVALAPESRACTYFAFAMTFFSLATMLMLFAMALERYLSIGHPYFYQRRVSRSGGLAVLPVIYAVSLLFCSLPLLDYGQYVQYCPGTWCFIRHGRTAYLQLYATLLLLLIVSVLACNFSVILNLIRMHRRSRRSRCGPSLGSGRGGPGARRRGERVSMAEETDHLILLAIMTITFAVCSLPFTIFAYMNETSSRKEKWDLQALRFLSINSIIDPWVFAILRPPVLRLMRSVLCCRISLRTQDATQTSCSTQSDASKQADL

By EC50 is commonly meant the midpoint of the concentration-response curve. A low value points to a more potent agent. The term Ki denotes the dissociation constant of the complex between target and ligand, obtained from inhibition or displacement. Higher therefore signals a looser hold on the target. For the molecule `CCCCCC(O)/C=C/[C@@H]1[C@@H](CCCc2ccc(C(=O)O)s2)[C@H](Cl)C[C@H]1O` (single isomer, unassigned) [Entry 16], the EC50 at EP4 [1] is 42 nM; on EP2 [3], 26 nM; at EP2 [4] it was 5 nM; on EP3 it was 421 nM; at DP, 7730 nM; at EP1, 86 nM. In addition, the figures for the inhibitory constant (Ki) on EP4 [2] and on EP2 [5] were 577 nM and 202 nM, respectively.

`CCCCC[C@@H]1[C@@H](CCCc2ccc(C(=O)O)s2)[C@H](Cl)C[C@H]1O` [Entry 1, 5-[3-((1R,2R,3R,5R)-5-Chloro-3-hydroxy-2-pentyl-cyclopentyl)-propyl]-thiophene-2-carboxylic acid]: the EC50 at EP4 [1] amounted to 9100 nM; at EP2 [3] it was 74 nM; on EP2 [4], 1 nM; on TP it was 187 nM; on EP3, 1740 nM; on DP, 2080 nM. The inhibition constant Ki at EP2 [5] worked out at 6 nM.

Consider `CCCCCC[C@@H]1[C@@H](CCCc2ccc(C(=O)O)s2)[C@H](Cl)C[C@H]1O` [Entry 2, 5-[3-((1R,2R,3R,5R)-5-Chloro-2-hexyl-3-hydroxy-cyclopentyl)-propyl]-thiophene-2-carboxylic acid], for which the EC50 came to 9380 nM at EP4 [1]; 405 nM at EP2 [3]; 0.7 nM at EP2 [4]; 2990 nM at TP; 5990 nM at EP3; 1780 nM at DP. For the same molecule, the inhibition constant Ki on EP4 [2] stood at 754 nM; at EP2 [5] it was 4 nM.

With `CCCCCCCCC[C@@H]1[C@@H](CCCc2ccc(C(=O)O)s2)[C@H](Cl)C[C@H]1O` [Entry 5, 5-[3-((1R,2R,3R,5R)-5-Chloro-3-hydroxy-2-nonyl-cyclopentyl)-propyl]-thiophene-2-carboxylic acid], the concentration giving a half-maximal response (EC50) on EP4 [1] is above 10000 nM; at EP2 [3], 21 nM; on EP2 [4], 3 nM; on EP3 it was 6660 nM. For the same molecule, the values for the Ki on EP4 [2] and at EP2 [5] were 1230 nM and 1.5 nM, respectively.

Regarding `O=C(O)c1ccc(CCC[C@@H]2[C@@H](C=CCCCCCCO)[C@H](O)C[C@H]2Cl)s1` [Entry 6, 5-{3-[(1R,2R,3R,5R)-5-Chloro-3-hydroxy-2-(8-hydroxy-oct-1-enyl)-cyclopentyl]-propyl}-thiophene-2-carboxylic acid], the concentration for a half-maximal effect (EC50) was 531 nM on EP2 [3], 14 nM on EP2 [4], 1000 nM at DP and above 10000 nM at EP1. Besides, at EP2 [5], the Ki is 37 nM.

For `CCCC=C[C@@H]1[C@@H](CCCc2ccc(C(=O)O)s2)[C@H](Cl)C[C@H]1O` [Entry 7, 5-[3-((1R,2R,3R,5R)-5-Chloro-3-hydroxy-2-pent-1-enyl-cyclopentyl)-propyl]-thiophene-2-carboxylic acid], the 50% effective concentration (EC50) amounted to 14800 nM at EP4 [1]; 303 nM at EP2 [3]; 55 nM at EP2 [4]; 249 nM on TP; 1160 nM on EP3; 573 nM at DP. The molecule also registered an inhibition constant Ki on EP2 [5] of 60 nM.

For the molecule `CCCCCC=C[C@@H]1[C@@H](CCCc2ccc(C(=O)O)s2)[C@H](Cl)C[C@H]1O` [Entry 8, 5-[3-((1R,2R,3R,5R)-5-Chloro-2-hept-1-enyl-3-hydroxy-cyclopentyl)-propyl]-thiophene-2-carboxylic acid], the concentration for a half-maximal effect (EC50) on EP4 [1] worked out at 9100 nM; on EP2 [3], 112 nM; on EP2 [4] it was 8 nM; on TP it was 230 nM; at EP3, 544 nM; on DP it was 337 nM. Further, the Ki on EP4 [2] was found to be 186 nM; on EP2 [5], 14 nM.

For the molecule `CCCCCCCCC=C[C@@H]1[C@@H](CCCc2ccc(C(=O)O)s2)[C@H](Cl)C[C@H]1O` [Entry 9, 5-[3-((1R,2R,3R,5R)-5-Chloro-2-dec-1-enyl-3-hydroxy-cyclopentyl)-propyl]-thiophene-2-carboxylic acid], the concentration for a half-maximal effect (EC50) on EP4 [1] amounted to 34200 nM; at EP2 [3] it was 512 nM; at EP2 [4] it was 15 nM; at DP, 10500 nM. The inhibitory constant (Ki) at EP4 [2] stood at 695 nM; at EP2 [5], 18 nM.

As to `O=C(O)c1ccc(CCC[C@@H]2[C@@H](CCCCCCCCO)[C@H](O)C[C@H]2Cl)s1` [Entry 10, 5-{3-[(1R,2R,3R,5R)-5-Chloro-3-hydroxy-2-(8-hydroxy-octyl)-cyclopentyl]-propyl}-thiophene-2-carboxylic acid], the EC50 at EP4 [1] is above 10000 nM; at EP2 [3], 69 nM; on EP2 [4], below 1 nM; on DP, 6130 nM. In addition, on EP2 [5], the inhibitory constant (Ki) is 5 nM.

Turning to `O=C(O)c1ccc(CCC[C@@H]2[C@@H](CCCCCCCO)[C@H](O)C[C@H]2Cl)s1` [Entry 11, 5-{3-[(1R,2R,3R,5R)-5-Chloro-3-hydroxy-2-(7-hydroxy-heptyl)-cyclopentyl]-propyl}-thiophene-2-carboxylic acid], the EC50 on EP4 [1] is 23700 nM; at EP2 [3], 10 nM; at EP2 [4], 0.3 nM; at DP, 1950 nM. The inhibition constant (Ki) at EP4 [2] is 1520 nM; at EP2 [5], 9 nM.

As for `O=C(O)c1ccc(CCC[C@@H]2[C@@H](C=CCCCCCO)[C@H](O)C[C@H]2Cl)s1` [Entry 13, 5-{3-[(1R,2R,3R,5R)-5-Chloro-3-hydroxy-2-(7-hydroxy-hept-1-enyl)-cyclopentyl]-propyl}-thiophene-2-carboxylic acid], the EC50 on EP4 [1] is 31400 nM; at EP2 [3] it was 46 nM; on EP2 [4], 3.6 nM; at DP, 253 nM. The Ki at EP4 [2] worked out at 2390 nM; on EP2 [5], 60 nM.

Consider `CCCCCCCC=C[C@@H]1[C@@H](CCCc2ccc(C(=O)O)s2)[C@H](Cl)C[C@H]1O` [Entry 14, 5-[3-((1R,2R,3R,5R)-5-Chloro-3-hydroxy-2-non-1-enyl-cyclopentyl)-propyl]-thiophene-2-carboxylic acid], for which the 50% effective concentration (EC50) is above 10000 nM at EP4 [1]; 15 nM at EP2 [3]; 4 nM at EP2 [4]; 3000 nM on EP3; 11700 nM on DP. Besides, the figures for the Ki at EP4 [2] and on EP2 [5] were 1110 nM and 6 nM, respectively.

Turning to `CCCC/C=C/CC[C@@H]1[C@@H](CCCc2ccc(C(=O)O)s2)[C@H](Cl)C[C@H]1O` [Entry 18, 5-(3-((1R,2R,3R,5R)-5-chloro-3-hydroxy-2-((E)-oct-3-enyl)cyclopentyl)propyl)thiophene-2-carboxylic acid], the 50% effective concentration (EC50) was found to be 713 nM at EP4 [1]; 51 nM on EP2 [3]; 2 nM at EP2 [4]; 593 nM at EP3; 2800 nM at DP; 4930 nM at EP1. The same molecule displayed an inhibitory constant (Ki) on EP2 [5] of 18 nM.

In the case of `CCCCCCCCCC[C@@H]1[C@@H](CCCc2ccc(C(=O)O)s2)[C@H](Cl)C[C@H]1O` [Entry 19, 5-(3-((1R,2R,3R,5R)-5-chloro-2-decyl-3-hydroxycyclopentyl)propyl)thiophene-2-carboxylic acid], the EC50 was above 10000 nM on EP4 [1], 1160 nM on EP2 [3] and 2 nM at EP2 [4]. In addition, the inhibition constant Ki on EP4 [2] was found to be 7100 nM; on EP2 [5] it was 6 nM.
